Test results published in patent publication EP4755888A1 (ILAb Co., Ltd., priority 2023, dated 2025).
pIC50: −log10 of the molar value.

Each compound was assayed against PD-1/PD-L1 (Homo sapiens, UniProt Q9NZQ7) (assay: TR-FRET PD-1/PD-L1 binding inhibition at the molecular level (free proteins)). Settings: Tag1-PD-L1 and Tag2-PD-1 proteins, twelve concentrations from 200 nM, 2 hours at room temperature, read-out: FRET assay (IC50).
In short: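 HTRF read-out at 665/620 nm after 2 h at room temperature. Detection used anti-Tag1 Eu cryptate plus anti-Tag2 XL665 antibodies. Tagged PD-L1 and PD-1 proteins were pre-mixed with compound across twelve […] 1:2 dilutions starting at 200 nM.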

Chain of PD-1/PD-L1 (Q9NZQ7 19-238 limits assumed): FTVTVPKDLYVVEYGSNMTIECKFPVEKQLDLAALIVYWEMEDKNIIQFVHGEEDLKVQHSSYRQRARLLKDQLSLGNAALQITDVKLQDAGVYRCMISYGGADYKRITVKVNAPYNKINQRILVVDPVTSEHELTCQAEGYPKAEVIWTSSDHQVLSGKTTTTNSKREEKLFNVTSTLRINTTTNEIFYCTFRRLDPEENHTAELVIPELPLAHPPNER

Row | SMILES | pIC50
1 | CC(=O)NCCNC1CCCn2nc(C(=O)Nc3cccc(-c4cccc(Nc5nccc6cc(CN7CC[C@@H](O)C7)cnc56)c4Cl)c3C)cc21 (stereo partly drawn) [Compound 39, 4-((2-acetamidoethyl)amino)-N-(2'-chloro-3'-((3-(((R)-3-hydroxypyrrolidin-1-yl)methyl)-1,7-naphthyridin-8-yl)amino)-2-methyl-[1,1'-biphenyl]-3-yl)-4,5,6,7-tetrahydropyrazolo[1,5-a]pyridine-2-carboxamide] | > 8.00
2 | Cc1c(NC(=O)c2cc3n(n2)CCCC3N2CC[C@@H](C(=O)O)C2)cccc1-c1cccc(Nc2nccc3cc(CN4CC[C@@H](O)C4)cnc23)c1Cl (stereo partly drawn) [Compound 42, (3R)-1-(2-((2'-chloro-3'-((3-(((R)-3-hydroxypyrrolidin-1-yl)methyl)-1,7-naphthyridin-8-yl)amino)-2-methyl-[1,1'-biphenyl]-3-yl)carbamoyl)-4,5,6,7-tetrahydropyrazolo[1,5-a]pyridin-4-yl)pyrrolidine-3-carboxylic acid] | > 8.00
3 | O=C(O)[C@@H]1CCN(C2CCCn3nc(-c4cccc(-c5cccc(Nc6nccc7cc(CN8CC[C@@H](O)C8)cnc67)c5Cl)c4Cl)cc32)C1 (stereo partly drawn) [Compound 184, (3R)-1-(2-(2,2'-dichloro-3'-((3-(((R)-3-hydroxypyrrolidin-1-yl)methyl)-1,7-naphthyridin-8-yl)amino)-[1,1'-biphenyl]-3-yl)-4,5,6,7-tetrahydropyrazolo[1,5-a]pyridin-4-yl)pyrrolidine-3-carboxylic acid] | > 8.00
4 | Cc1c(NC(=O)c2cc3n(n2)CCCC3O)cccc1-c1cccc(-c2ccc(CNC[C@@H]3CCC(=O)N3)cc2)c1C (stereo partly drawn) [Compound 109, N-(2,2'-dimethyl-4"-(((((S)-5-oxopyrrolidin-2-yl)methyl)amino)methyl)-[1,1':3',1"-terphenyl]-3-yl)-4-hydroxy-4,5,6,7-tetrahydropyrazolo[1,5-a]pyridine-2-carboxamide] | > 8.00
5 | COc1nc(-c2cccc(-c3cccc(-c4cc5n(n4)CCCC5NCC(=O)O)c3C)c2C)cnc1CNC[C@@H]1CCC(=O)N1 (stereo partly drawn) [Compound 163, 2-((2-(3'-(6-methoxy-5-(((((S)-5-oxopyrrolidin-2-yl)methyl)amino)methyl)pyrazin-2-yl)-2,2'-dimethyl-[1,1'-biphenyl]-3-yl)-4,5,6,7-tetrahydropyrazolo[1,5-a]pyridin-4-yl)amino)acetic acid] | 7.00 to 8.00
6 | Cn1c(C(=O)Nc2cccc(-c3cccc(NC(=O)c4cc5n(n4)CCCC5N4CC[C@@H](C(=O)O)C4)c3Cl)c2Cl)nc2c1CCN(CCC13CCC(C(=O)O)(CC1)C3)C2 (stereo partly drawn) [Compound 57, (3R)-1-(2-((3'-(5-(2-(4-carboxybicyclo[2.2.1]heptan-1-yl)ethyl)-1-methyl-4,5,6,7-tetrahydro-1H-imidazo[4,5-c]pyridine-2-carboxamido)-2,2'-dichloro-[1,1'-biphenyl]-3-yl)carbamoyl)-4,5,6,7-tetrahydropyrazolo[1,5-a]pyridin-4-yl)pyrrolidine-3-carboxylic acid] | > 8.00
7 | O=C(Nc1cccc(-c2cccc(Nc3nccc4nccnc34)c2Cl)c1Cl)c1cc2n(n1)CCC[C@H]2N1CC(C(=O)O)C1 [Compound 263, (R)-1-(2-((2,2'-dichloro-3'-(pyrido[3,4-b]pyrazin-5-ylamino)-[1,1'-biphenyl]-3-yl)carbamoyl)-4,5,6,7-tetrahydropyrazolo[1,5-a]pyridin-4-yl)azetidine-3-carboxylic acid] | > 8.00
8 | Cc1c(NC(=O)c2ccc(CN3CC[C@@H](O)C3)cn2)cccc1-c1cccc(NC(=O)c2cc3n(n2)CCC[C@H]3N2CCC[C@@H]2CO)c1C [Compound 310-1] | > 8.00
9 | O=C(Nc1cccc(-c2cccc(Nc3nc(C(F)(F)F)nc4cc(CN5CC[C@@H](O)C5)cnc34)c2Cl)c1Cl)c1cc2n(n1)CCC[C@@H]2N1CCC(C(=O)O)CC1 [Compound 336, 1-((S)-2-((2,2'-dichloro-3'-((7-(((R)-3-hydroxypyrrolidin-1-yl)methyl)-2-(trifluoromethyl)pyrido[3,2-d]pyrimidin-4-yl)amino)-[1,1'-biphenyl]-3-yl)carbamoyl)-4,5,6,7-tetrahydropyrazolo[1,5-a]pyridin-4-yl)piperidine-4-carboxylic acid] | 7.00 to 8.00
10 | Cc1c(Nc2nccc3cc(CN4CC[C@@H](O)C4)cnc23)cccc1-c1cccc(NC(=O)c2cc3n(n2)CCCC3N2CCC(C(=O)O)CC2)c1Cl (stereo partly drawn) [Compound 35, 1-(2-((2-chloro-3'-((3-(((R)-3-hydroxypyrrolidin-1-yl)methyl)-1,7-naphthyridin-8-yl)amino)-2'-methyl-[1,1'-biphenyl]-3-yl)carbamoyl)-4,5,6,7-tetrahydropyrazolo[1,5-a]pyridin-4-yl)piperidine-4-carboxylic acid] | > 8.00
11 | Cc1c(NC(=O)c2cc3n(n2)CCCC3NC(C)(C)C(=O)O)cccc1-c1cccc(NC(=O)c2nc3c(n2C)CCN(CCC24CCC(C(=O)O)(CC2)C4)C3)c1C (stereo not drawn) [Compound 51, 4-(2-(2-((3'-(4-((2-carboxypropan-2-yl)amino)-4,5,6,7-tetrahydropyrazolo[1,5-a]pyridine-2-carboxamido)-2,2'-dimethyl-[1,1'-biphenyl]-3-yl)carbamoyl)-1-methyl-6,7-dihydro-1H-imidazo[4,5-c]pyridin-5(4H)-yl)ethyl)bicyclo[2.2.1]heptane-1-carboxylic acid] | > 8.00
12 | Cc1c(-c2cc3n(n2)CCCC3N2CCC(O)C2)cccc1-c1cccc(-c2cc3n(n2)CCCC3N2CCC(O)C2)c1C [Compound 156, (3R,3'R)-1,1'-(2,2'-(2,2'-dimethyl-[1,1'-biphenyl]-3,3'-diyl)bis(4,5,6,7-tetrahydropyrazolo[1,5-a]pyridine-4,2-diyl))bis(pyrrolidin-3-ol)] | 6.00 to 7.00

More lines, now with the values ahead:

Row | pIC50 | SMILES
13 | > 8.00 | Cc1c(NC(=O)c2cc3n(n2)CCC[C@H]3N2CCC(C(=O)O)CC2)cccc1-c1cccc(Nc2nc(C(F)F)nc3cccnc23)c1C [Compound 292, (R)-1-(2-((3'-((2-(difluoromethyl)pyrido[3,2-d]pyrimidin-4-yl)amino)-2,2'-dimethyl-[1,1'-biphenyl]-3-yl)carbamoyl)-4,5,6,7-tetrahydropyrazolo[1,5-a]pyridin-4-yl)piperidine-4-carboxylic acid]
14 | > 8.00 | COc1cc(-c2cccc(-c3cccc(NC(=O)c4cc5n(n4)CCCC5N4CC[C@@H](O)C4)c3Cl)c2Cl)cc(F)c1CN1CC[C@@H](O)C1 (stereo partly drawn) [Compound 123, N-(2,2'-dichloro-3"-fluoro-4"-(((R)-3-hydroxypyrrolidin-1-yl)methyl)-5"-methoxy-[1,1':3',1 "-terphenyl]-3-yl)-4-((R)-3-hydroxypyrrolidin-1-yl)-4,5,6,7-tetrahydropyrazolo[1,5-a]pyridine-2-carboxamide]
15 | 7.00 to 8.00 | O=C(O)CCCNC1CCCn2nc(C(=O)Nc3cccc(-c4cccc(Nc5nccc6cc(CN7CC[C@@H](O)C7)cnc56)c4Cl)c3Cl)cc21 (stereo partly drawn) [Compound 239, 4-((2-((2,2'-dichloro-3'-((3-(((R)-3-hydroxypyrrolidin-1-yl)methyl)-1,7-naphthyridin-8-yl)amino)-[1,1'-biphenyl]-3-yl)carbamoyl)-4,5,6,7-tetrahydropyrazolo[1,5-a]pyridin-4-yl)amino)butanoic acid]
16 | > 8.00 | Cc1c(NC(=O)c2cc3n(n2)CCCC3NCC(=O)O)cccc1-c1cccc(NC(=O)c2nc3c(s2)CN(C)CC3)c1C (stereo not drawn) [Compound 149, 2-((2-((2,2'-dimethyl-3'-(5-methyl-4,5,6,7-tetrahydrothiazolo[5,4-c]pyridine-2-carboxamido)-[1,1'-biphenyl]-3-yl)carbamoyl)-4,5,6,7-tetrahydropyrazolo[1,5-a]pyridin-4-yl)amino)acetic acid]
17 | 7.00 to 8.00 | Cc1c(NC(=O)c2ccc(CN3CC[C@@H](O)C3)cn2)cccc1-c1cccc(NC(=O)c2cc3n(n2)CCC[C@H]3N2CCCC[C@@H]2CO)c1C [Compound 309-1, (R)-4-((R)-2-(hydroxymethyl)piperidin-1-yl)-N-(3'-(5-(((R)-3-hydroxypyrrolidin-1-yl)methyl)picolinamido)-2,2'-dimethyl-[1,1'-biphenyl]-3-yl)-4,5,6,7-tetrahydropyrazolo[1,5-a]pyridine-2-carboxamide]
18 | > 8.00 | CC(=O)NCCNC1CCCn2nc(C(=O)Nc3cccc(-c4cccc(NC(=O)c5ccc(CNCCO)cn5)c4C)c3C)cc21 (stereo not drawn) [Compound 72, 4-((2-acetamidoethyl)amino)-N-(3'-(5-(((2-hydroxyethyl)amino)methyl)picolinamido)-2,2'-dimethyl-[1,1'-biphenyl]-3-yl)-4,5,6,7-tetrahydropyrazolo[1,5-a]pyridine-2-carboxamide]
19 | 7.00 to 8.00 | O=C(Nc1cccc(-c2cccc(Nc3nc(C(F)F)nc4cc(CN5CC(F)(F)C5)cnc34)c2Cl)c1Cl)c1cc2n(n1)CCC[C@@H]2N1CCC(O)CC1 [Compound 271, (S)-N-(2,2'-dichloro-3'-((7-((3,3-difluoroazetidin-1-yl)methyl)-2-(difluoromethyl)pyrido[3,2-d]pyrimidin-4-yl)amino)-[1,1'-biphenyl]-3-yl)-4-(4-hydroxypiperidin-1-yl)-4,5,6,7-tetrahydropyrazolo[1,5-a]pyridine-2-carboxamide]
20 | 7.00 to 8.00 | O=C(Nc1cccc(-c2cccc(Nc3nccc4cc(CN5CC[C@@H](O)C5)cnc34)c2Cl)c1Cl)c1cc2n(n1)CCCC2NC(CO)CO (stereo partly drawn) [Compound 230, N-(2,2'-dichloro-3'-((3-(((R)-3-hydroxypyrrolidin-1-yl)methyl)-1,7-naphthyridin-8-yl)amino)-[1,1'-biphenyl]-3-yl)-4-((1,3-dihydroxypropan-2-yl)amino)-4,5,6,7-tetrahydropyrazolo[1,5-a]pyridine-2-carboxamide]
21 | 7.00 to 8.00 | O=C(Nc1cccc(-c2cccc(Nc3nc(C(F)(F)F)nc4cccnc34)c2Cl)c1Cl)c1cc2n(n1)CCC[C@H]2N1CC(C(=O)O)C1 [Compound 278, (R)-1-(2-((2,2'-dichloro-3'-((2-(trifluoromethyl)pyrido[3,2-d]pyrimidin-4-yl)amino)-[1,1'-biphenyl]-3-yl)carbamoyl)-4,5,6,7-tetrahydropyrazolo[1,5-a]pyridin-4-yl)azetidine-3-carboxylic acid]
